The values that follow come from PMC9738531, “Cholinesterases Inhibition, Anticancer and Antioxidant Activity of Novel Benzoxazole and Naphthoxazole Analogs” (Molecules, 2022).

Structures are written as SMILES.

One data set deals with T1, Acetylcholinesterase (AChE, E.C. 3.1.1.7, from human erythrocytes) (Homo sapiens, UniProt P22303).
T1 construct: Acetylcholinesterase (AChE, E.C. 3.1.1.7, from human erythrocytes); purchased Sigma-Aldrich (Steinheim, Germany); host or cells: human erythrocytes (natural source)
T1 sequence (P22303 other isoform, or with tags, fused parts or gaps): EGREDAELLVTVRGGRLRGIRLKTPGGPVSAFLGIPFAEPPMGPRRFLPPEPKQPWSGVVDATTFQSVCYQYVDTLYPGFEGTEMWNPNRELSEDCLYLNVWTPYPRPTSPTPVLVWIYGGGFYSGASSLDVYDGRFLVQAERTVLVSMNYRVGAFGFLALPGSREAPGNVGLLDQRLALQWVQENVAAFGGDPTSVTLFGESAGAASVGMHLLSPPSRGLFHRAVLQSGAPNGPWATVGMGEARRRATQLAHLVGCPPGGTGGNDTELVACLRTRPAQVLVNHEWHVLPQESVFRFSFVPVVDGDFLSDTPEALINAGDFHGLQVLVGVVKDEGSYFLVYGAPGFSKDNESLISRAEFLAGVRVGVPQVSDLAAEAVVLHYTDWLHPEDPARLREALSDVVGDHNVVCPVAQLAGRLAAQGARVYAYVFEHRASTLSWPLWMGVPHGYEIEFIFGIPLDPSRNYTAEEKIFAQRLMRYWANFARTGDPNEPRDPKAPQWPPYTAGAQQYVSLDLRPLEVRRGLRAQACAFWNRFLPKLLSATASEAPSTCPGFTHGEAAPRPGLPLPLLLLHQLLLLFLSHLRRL
Nature of the data set: biochemical. The note with it: IC50 (BChE)/IC50 (AChE). The procedure: (§1) The compounds were evaluated by an in vitro assay as the AChE and BChE inhibitors. The studies were carried out using the modified Ellman’s method. […] The inhibitory activities against AChE and BChE of the newly-synthesized compounds were determined exactly, according to a previous paper. […] The samples were analysed in triplicate. IC50 values were designated from a dose–response curve obtained by plotting the percentage of inhibition versus the log concentration, using GraphPad Prism 8 software. […] AChE and BChE activity data were compared using the Kruskal–Wallis test at the significance level of 1%.
For the molecule `COC(=O)c1ccc2nc(-c3cc(Cl)c(O)cc3O)oc2c1` [Compound 6, Methyl 2-(5-chloro-2,4-dihydroxyphenyl)-1,3-benzoxazole-6-carboxylate], the “Selectivity for AChE” value stood at 0.394.

Take `CCc1cc(-c2nc3c(ccc4ccccc43)o2)c(O)cc1O` [Compound 9, 4-Ethyl-6-(naphtho[1,2-d][1,3]oxazol-2-yl)benzene-1,3-diol]: the “Selectivity for AChE” value is listed as 1.971.

The same data set, now with this note: means ± SEM of three independent experiments.
Usually IC50 stands for the concentration that gives 50% inhibition. `COC(=O)c1ccc2nc(-c3cc(Cl)c(O)cc3O)oc2c1` [Compound 6, Methyl 2-(5-chloro-2,4-dihydroxyphenyl)-1,3-benzoxazole-6-carboxylate]: the IC50 worked out at 0.831 ± 0.014 µM.

With `CCc1cc(-c2nc3c(ccc4ccccc43)o2)c(O)cc1O` [Compound 9, 4-Ethyl-6-(naphtho[1,2-d][1,3]oxazol-2-yl)benzene-1,3-diol], the IC50 amounted to 0.516 ± 0.009 µM.

A further data set deals with T2, butyrylcholinesterase (BChE, E.C. 3.1.1.8, from equine serum) (Equus caballus, UniProt P81908).
T2 construct: butyrylcholinesterase (BChE, E.C. 3.1.1.8, from equine serum); purchased Sigma-Aldrich (Steinheim, Germany); host or cells: equine serum (natural source)
T2 sequence (P81908 whole entry): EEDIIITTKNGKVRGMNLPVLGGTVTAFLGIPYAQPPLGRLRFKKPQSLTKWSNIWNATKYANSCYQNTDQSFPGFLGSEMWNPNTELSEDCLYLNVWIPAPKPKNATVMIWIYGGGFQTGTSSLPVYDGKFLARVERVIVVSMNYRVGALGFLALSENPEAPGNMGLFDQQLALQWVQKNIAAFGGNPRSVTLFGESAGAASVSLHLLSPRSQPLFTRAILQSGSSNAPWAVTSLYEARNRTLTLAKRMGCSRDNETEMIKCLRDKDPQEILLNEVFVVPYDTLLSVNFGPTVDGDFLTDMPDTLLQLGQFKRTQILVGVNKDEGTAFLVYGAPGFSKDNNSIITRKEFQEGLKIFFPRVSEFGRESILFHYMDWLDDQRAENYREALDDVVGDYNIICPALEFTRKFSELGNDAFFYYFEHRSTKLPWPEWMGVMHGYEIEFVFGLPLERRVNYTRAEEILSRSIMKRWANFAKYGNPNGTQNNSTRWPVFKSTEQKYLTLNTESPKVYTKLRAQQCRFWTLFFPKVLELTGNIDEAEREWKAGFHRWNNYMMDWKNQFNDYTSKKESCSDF
Nature of the data set: biochemical. The note with it: means ± SEM of three independent experiments. The procedure: as §1
Regarding `COC(=O)c1ccc2nc(-c3cc(Cl)c(O)cc3O)oc2c1` [Compound 6, Methyl 2-(5-chloro-2,4-dihydroxyphenyl)-1,3-benzoxazole-6-carboxylate], the midpoint of inhibition, the IC50, lay at 0.328 ± 0.027 µM.

In turn, `CCc1cc(-c2nc3c(ccc4ccccc43)o2)c(O)cc1O` [Compound 9, 4-Ethyl-6-(naphtho[1,2-d][1,3]oxazol-2-yl)benzene-1,3-diol] displayed an IC50 of 1.02 ± 0.032 µM.

Test system in another data set: not listed separately
Nature of the data set: DPPH free radical scavenging activity. The conditions noted are these: concentration scavenging 50% of DPPH radicals; means ± SD of three experiments. The procedure:
To evaluate the antioxidant potential of compounds as radical scavengers versus the stable free radicals, 2,2-diphenylpicrylhydrazyl (DPPH) was applied. Antioxidant properties were expressed as the IC50 value—the concentration of compound required for scavenging 50% of DPPH radicals. […].
The DPPH free radical scavenging activities of the synthesized compounds were measured by DPPH, according to the method described in the paper. The free radical scavenging activity was measured as a decrease in the absorbance of DPPH, and calculated using the equation:DPPH scavenging effects (%) = […] [(A0 − A1)/A0]∙100](2) where: A0 was the absorbance of the control reaction and A1 absorbance in the presence of the sample of the analysed compounds [62]. The IC50 values were calculated as the concentration of compound required for scavenging 50% of DPPH [45]. Results were presented as the mean ± standard deviation (SD). The antioxidant activity data were compared using the one-way ANOVA test at the significance level 5%.
The molecule `O=c1c(O)c(-c2ccc(O)c(O)c2)oc2cc(O)cc(O)c12` [quercetin, reference compound] came in with a half-inhibitory concentration (IC50) of 0.032 ± 0.001 µM.

`COC(=O)c1ccc2nc(-c3cc(Cl)c(O)cc3O)oc2c1` [Compound 6, Methyl 2-(5-chloro-2,4-dihydroxyphenyl)-1,3-benzoxazole-6-carboxylate] yielded an IC50 of 0.861 ± 0.071 µM.

In turn, `CCc1cc(-c2nc3c(ccc4ccccc43)o2)c(O)cc1O` [Compound 9, 4-Ethyl-6-(naphtho[1,2-d][1,3]oxazol-2-yl)benzene-1,3-diol] registered a 50% inhibitory concentration (IC50) of 0.214 ± 0.024 µM.

In another data set the test system is HCV29T (bladder cancer) cells. Briefly: SRB antiproliferative assay, HCV29T. It is filed as cell-based, human. The conditions noted are these: Homo sapiens, HCV29T, 72 h, means ± SD, read-out: IC50 HCV 29T. The procedure: (§2) The compounds were also evaluated for their antiproliferative potencies against human cancer cell lines as the potential anticancer agents. […]. The results are presented in Table 3 and expressed as IC50 (μM). In that score, the highest potency was shown by the analogs from the naphtho[1,2-d][1,3]oxazole group 8–10, particularly by derivative 10 with a chlorine atom on the benzenediol moiety.
(§3) In the antiproliferative assay in vitro, the following human cell lines were applied: T47D (breast cancer), SW707 (rectal adenocarcinoma), A549 (non-small cell lung carcinoma) from the American Type Culture Collection (Rockville, MD, USA) and HCV29T (bladder cancer) from the Fibiger Institute, Copenhagen, Denmark. Cytotoxicity assay was performed after 72 h exposure of the cultured cells at the concentration ranging from 0.1 to 100 μg/mL of the tested agents. The SRB test measuring the cell proliferation inhibition in the in vitro culture was applied. The cellular material fixed with TCA was stained with 0.4% sulforhodamine B (Chemie GmbH, Steinheim, Germany) dissolved in 1% acetic acid (POCh, Gliwice, Poland) for 30 min.
(Sulforhodamine B stains cellular protein and so reports cell mass.)
For `COC(=O)c1ccc2nc(-c3cc(Cl)c(O)cc3O)oc2c1` [Compound 6, Methyl 2-(5-chloro-2,4-dihydroxyphenyl)-1,3-benzoxazole-6-carboxylate], the IC50 came out at 7.54 ± 3.15 µM.

As to `CCc1cc(-c2nc3c(ccc4ccccc43)o2)c(O)cc1O` [Compound 9, 4-Ethyl-6-(naphtho[1,2-d][1,3]oxazol-2-yl)benzene-1,3-diol], the IC50 worked out at 3.72 ± 0.36 µM.

The next data set deals with A549 (non-small cell lung carcinoma) cells. Briefly: SRB antiproliferative assay, A549. It is filed as cell-based, human. The note with it: Homo sapiens, A549, 72 h, means ± SD. The procedure:
as §2, §3
Consider `COC(=O)c1ccc2nc(-c3cc(Cl)c(O)cc3O)oc2c1` [Compound 6, Methyl 2-(5-chloro-2,4-dihydroxyphenyl)-1,3-benzoxazole-6-carboxylate], for which the IC50 is 10.5 ± 5.61 µM.

As for `CCc1cc(-c2nc3c(ccc4ccccc43)o2)c(O)cc1O` [Compound 9, 4-Ethyl-6-(naphtho[1,2-d][1,3]oxazol-2-yl)benzene-1,3-diol], the IC50 turned out to be 4.94 ± 0.69 µM.

For the next data set, the system named is T47D (breast cancer) cells. Briefly: SRB antiproliferative assay, T47D. It is filed as cell-based, human. The conditions noted are these: Homo sapiens, T47D, 72 h, means ± SD. The procedure:
as §2, §3
In turn, `COC(=O)c1ccc2nc(-c3cc(Cl)c(O)cc3O)oc2c1` [Compound 6, Methyl 2-(5-chloro-2,4-dihydroxyphenyl)-1,3-benzoxazole-6-carboxylate] registered an IC50 of 6.61 ± 2.48 µM.

Take `CCc1cc(-c2nc3c(ccc4ccccc43)o2)c(O)cc1O` [Compound 9, 4-Ethyl-6-(naphtho[1,2-d][1,3]oxazol-2-yl)benzene-1,3-diol]: the IC50 amounted to 7.28 ± 2.5 µM.

A further data set concerns SW707 (rectal adenocarcinoma) cells. Briefly: SRB antiproliferative assay, SW707. It is filed as cell-based, human. The conditions noted are these: Homo sapiens, SW707, 72 h, means ± SD, read-out: IC50 SW 707. The procedure: as §2, §3
Turning to `COC(=O)c1ccc2nc(-c3cc(Cl)c(O)cc3O)oc2c1` [Compound 6, Methyl 2-(5-chloro-2,4-dihydroxyphenyl)-1,3-benzoxazole-6-carboxylate], the half-maximal inhibitory concentration (IC50) came out at 6.04 ± 0.89 µM.

As to `CCc1cc(-c2nc3c(ccc4ccccc43)o2)c(O)cc1O` [Compound 9, 4-Ethyl-6-(naphtho[1,2-d][1,3]oxazol-2-yl)benzene-1,3-diol], the IC50 is 8.58 ± 3.4 µM.

Test system in a further data set: not listed separately
Nature of the data set: Lipophilicity by RP-18 HPLC chromatography. It is filed as physicochemical. The note with it: MeOH/acetate buffer, pH 7.4. An excerpt: The lipophilicity parameter was estimated for the tested compounds as it is an important feature that influences the pharmacokinetic properties of bioactive compounds [46, 47]. Lipophilicity also determines some biological activities, such as the antiproliferative or fungistatic activity. For lipophilicity determination, reversed-phase column chromatography was used, with the octadecyl C-18 stationary phase and MeOH as the organic modifier in the isocratic conditions.
HPLC measurements were performed using a liquid chromatograph (Knauer, Berlin, Germany) with a dual pump and a UV-visible detector. The measurements were made at 254 or 320 nm at room temperature. A Eurosil Bioselect C18 (5 μm, 300 × 4.6 mm) column was applied as the stationary phase. The mobile phase consisted of different volume mixtures of 20 mM acetate buffer as the aqueous phase, and MeOH as the organic modifier (pH 7.4). The different concentrations of MeOH from 0.5 to 0.90 (v/v) range was used, depending on the structure of the compound at 0.05 intervals. The flow rate was 1 mL/min. Retention time of an unretained solute (t0) was determined by the injection of a small amount of acetone dissolved in water.
Regular changes in the retention coefficients of compounds in a function of the organic modifier MeOH content in the mobile phase are described by the Soczewiński–Wachtmeister equation [56]:log k = log kw + S φ(1)
φ—the volume fraction of organic modifier (MeOH) in the mobile phase; log kw—the intercept; S—slope of the regression curve. Log kw refers to the retention parameter of a compound with pure water as the mobile phase.
For `COC(=O)c1ccc2nc(-c3cc(Cl)c(O)cc3O)oc2c1` [Compound 6, Methyl 2-(5-chloro-2,4-dihydroxyphenyl)-1,3-benzoxazole-6-carboxylate], the “-S (slope of log k vs MeOH fraction)” value is 5.477.

Turning to `CCc1cc(-c2nc3c(ccc4ccccc43)o2)c(O)cc1O` [Compound 9, 4-Ethyl-6-(naphtho[1,2-d][1,3]oxazol-2-yl)benzene-1,3-diol], the “-S (slope of log k vs MeOH fraction)” value amounted to 5.395.

The data set is the same for the next values; noted with them: pH 7.4, extrapolation to pure water as mobile phase.
Consider `COC(=O)c1ccc2nc(-c3cc(Cl)c(O)cc3O)oc2c1` [Compound 6, Methyl 2-(5-chloro-2,4-dihydroxyphenyl)-1,3-benzoxazole-6-carboxylate], for which the log kw is 4.223.

Turning to `CCc1cc(-c2nc3c(ccc4ccccc43)o2)c(O)cc1O` [Compound 9, 4-Ethyl-6-(naphtho[1,2-d][1,3]oxazol-2-yl)benzene-1,3-diol], the log kw is reported as 4.901.
